{
  "source": "patent US20090041753A1",
  "about": "“Cytokine signaling” (priority 2006, published 2009)",
  "test_system": "purified astrocyte cultures",
  "assay": "CXCL1 addition to purified spinal cord astrocyte cultures, CSPG by immunocytochemistry and dot blot",
  "assay_type": "cell-based",
  "settings": "CXCL1 0.5 ng/ml, 3 days",
  "procedure": "Cells were treated with CXCL1 (0.5 ng/ml) for 3 days and assayed for CSPG deposition onto substrate by immunocytochemistry and released into medium. […] GFAP (red), CSPG (green) (FIG. 34) For the culture studies, cultures of spinal cord astrocytes were assayed for basal levels of mRNA expression of CXCL1 and CXCR2 by RT-PCR (FIG. 33). The effect of 3 day CXCL1 protein addition (0.5 ng/ml) on CSPG protein expression was conducted on spinal cord astrocyte cultures as well as by immunocytochemistry and dot blot assays to analyze secreted and bound CSPG (FIG. 34).",
  "data": [
    {"substance": "CXCL1: soluble secreted chemoattractive cytokine of the ELR positive family of CXC chemokines; preferred receptor CXCR2", "values": [
      {"measurement": "CSPG expression (deposition onto substrate, immunocytochemistry)", "value": "induces CSPG expression"},
      {"measurement": "CSPG released into medium (dot blot)", "value": "increased CSPG"},
      {"measurement": "astrocyte morphology", "value": "changes morphology"}
    ]}
  ]
}
